Among the data in patent publication US20240051946A1, “TARGETED PROTEIN DEGRADATION OF PARP14 FOR USE IN THERAPY” (Ribon Therapeutics, Inc., priority 2022, published 2024) are DC50 values, retold here.

Structures can show the parent of a compound that is named as a salt.

The target of this test is T1, PARP14 (Homo sapiens, UniProt Q460N5).
T1 construct: engineered to contain a HiBiT tag on both alleles of the PARP14 gene; endogenous in cells; host or cells: Jurkat cells stably expressing LgBiT (Promega), with CRISPR/Cas9 knock-in of HiBiT at the PARP14 locus
T1 sequence (Q460N5 whole entry): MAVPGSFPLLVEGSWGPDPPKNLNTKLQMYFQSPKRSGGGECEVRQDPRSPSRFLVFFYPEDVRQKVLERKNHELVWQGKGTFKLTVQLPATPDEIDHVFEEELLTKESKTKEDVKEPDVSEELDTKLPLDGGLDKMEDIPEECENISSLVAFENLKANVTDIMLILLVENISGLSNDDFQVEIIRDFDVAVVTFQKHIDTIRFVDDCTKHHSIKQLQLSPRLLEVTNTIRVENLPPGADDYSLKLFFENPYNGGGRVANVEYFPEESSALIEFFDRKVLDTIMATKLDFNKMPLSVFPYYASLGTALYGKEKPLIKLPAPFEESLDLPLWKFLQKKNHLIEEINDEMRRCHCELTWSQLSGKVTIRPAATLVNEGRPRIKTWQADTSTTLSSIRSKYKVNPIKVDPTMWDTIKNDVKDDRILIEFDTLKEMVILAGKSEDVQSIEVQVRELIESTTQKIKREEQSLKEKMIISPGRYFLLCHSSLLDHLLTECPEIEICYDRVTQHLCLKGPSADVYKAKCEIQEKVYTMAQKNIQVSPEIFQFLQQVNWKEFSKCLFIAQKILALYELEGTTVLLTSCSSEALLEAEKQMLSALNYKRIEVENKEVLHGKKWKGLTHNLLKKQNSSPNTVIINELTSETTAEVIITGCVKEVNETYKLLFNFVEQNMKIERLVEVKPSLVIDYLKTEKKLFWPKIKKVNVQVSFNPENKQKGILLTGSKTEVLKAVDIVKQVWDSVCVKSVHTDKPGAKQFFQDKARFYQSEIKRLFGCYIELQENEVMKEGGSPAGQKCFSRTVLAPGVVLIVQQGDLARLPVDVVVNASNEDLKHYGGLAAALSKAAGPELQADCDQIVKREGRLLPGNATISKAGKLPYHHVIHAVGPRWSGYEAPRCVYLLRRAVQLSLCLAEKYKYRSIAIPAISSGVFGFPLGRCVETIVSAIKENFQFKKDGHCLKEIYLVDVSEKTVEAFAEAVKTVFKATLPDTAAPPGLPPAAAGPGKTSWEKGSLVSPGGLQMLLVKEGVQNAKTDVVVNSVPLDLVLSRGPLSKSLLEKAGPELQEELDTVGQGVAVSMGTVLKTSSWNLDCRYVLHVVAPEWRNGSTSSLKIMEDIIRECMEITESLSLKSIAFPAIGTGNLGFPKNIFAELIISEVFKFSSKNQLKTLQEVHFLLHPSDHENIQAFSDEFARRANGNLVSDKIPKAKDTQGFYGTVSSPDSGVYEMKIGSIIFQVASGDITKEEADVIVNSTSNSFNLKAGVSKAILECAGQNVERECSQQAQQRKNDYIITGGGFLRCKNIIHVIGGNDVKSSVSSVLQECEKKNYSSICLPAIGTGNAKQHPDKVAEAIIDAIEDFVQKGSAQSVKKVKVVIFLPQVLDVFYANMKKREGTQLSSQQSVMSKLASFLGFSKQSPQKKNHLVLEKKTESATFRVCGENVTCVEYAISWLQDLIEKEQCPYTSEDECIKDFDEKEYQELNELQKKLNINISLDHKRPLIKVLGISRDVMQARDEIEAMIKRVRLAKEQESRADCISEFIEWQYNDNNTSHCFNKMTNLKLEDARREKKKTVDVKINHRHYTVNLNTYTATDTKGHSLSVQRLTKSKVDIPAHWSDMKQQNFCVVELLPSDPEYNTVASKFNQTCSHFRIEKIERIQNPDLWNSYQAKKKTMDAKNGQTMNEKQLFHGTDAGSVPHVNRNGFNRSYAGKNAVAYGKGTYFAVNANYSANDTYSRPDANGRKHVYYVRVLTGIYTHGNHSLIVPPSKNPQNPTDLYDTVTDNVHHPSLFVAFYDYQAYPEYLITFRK
In words: HiBiT assay for the degradation of PARP14 (HiBiT tagged PARP14 in LgBiT expressing Jurkat cells). Type of test: cell-based. As to conditions: Assay B, 37° C. for 2 or 24 hours, luminescence, read-out: DC50. As to the method: Jurkat cells stably transfected with LgBiT (Promega) were engineered to contain a HiBiT tag on both alleles of the PARP14 gene (Genbank Accession Number: NM_017554) via CRISPR/Cas9 editing. The HiBiT tag is an 11 amino acid tag created by Promega that associates with LgBiT protein to form the NanoLuc® tag on the C-terminus of PARP14. Clones were isolated and confirmed for the HiBiT tag via Sanger sequencing.
Degradation of PARP14 protein was assessed by measuring the luminescence of the HiBiT tag associating with the LgBiT protein as a proxy for the PARP14 protein. Jurkat cells were diluted to 250,000 cells per mL and then added to assay plate (Corning 3574) using a Multidrop (Thermo Fisher) to add 20 μL per well of the 384 well plate, resulting in 5,000 cells per well. 20 nL of a dose response curve diluted in DMSO of each test compound was added to the cell plate using a Mosquito (TTP Labtech) and the plate was incubated at 37° C. for 2 or 24 hours. Assay plate was brought to room temperature then 5 μL per well of Live Cell Substrate (Promega) was added to the plate. Luminescence was measured on an Envision (Perkin Elmer).
The average DMSO was calculated from 32 wells containing 0.1% DMSO only in columns 12 and 24 of the assay plate. The % of DMSO values were calculated as described below: […]
The % of DMSO values were plotted as a function of compound concentration and the following 4-parameter fit was applied to derive the DC50 values:
where top, bottom, and Hill Coefficient are allowed to float. Y is the % of DMSO and X is the compound concentration.
DC50 data for the Example compounds is provided below in Table 2 (“+” is <0.03 μM; “++” is ≥0.03 μM).
(HiBiT is a short tag that completes a luciferase, so light tracks the accessible tagged protein.)
Broadly, the DC50 is the midpoint of the concentration-degradation curve. With `O=C1CCC(Nc2ccc(N3CCC(N4CCC(OCc5nc6cc(OCC7CC7)cc(F)c6c(=O)[nH]5)CC4)CC3)c(F)c2)C(=O)N1` (stereo not drawn) [Example 53, 3-((4-(4-((7-(cyclopropylmethoxy)-5-fluoro-4-oxo-3,4-dihydroquinazolin-2-yl)methoxy)-[1,4′-bipiperidin]-1′-yl)-3-fluorophenyl)amino)piperidine-2,6-dione], the DC50 is below 30 nM.

On to `O=C1CCC(Nc2ccc(N3CCC(N4CCN(CCc5nc6cc(OCC7CC7)cc(F)c6c(=O)[nH]5)CC4)CC3)c(F)c2)C(=O)N1` (stereo not drawn) [Example 63, 3-((4-(4-(4-(2-(7-(cyclopropylmethoxy)-5-fluoro-4-oxo-3,4-dihydroquinazolin-2-yl)ethyl)piperazin-1-yl)piperidin-1-yl)-3-fluorophenyl)amino)piperidine-2,6-dione formic salt], for which the DC50 is below 30 nM.

With `O=C1CCC(Nc2ccc(N3CCC(N4CCC(SCc5nc6cc(OCC7CC7)cc(F)c6c(=O)[nH]5)CC4)C3)c(F)c2)C(=O)N1` (stereo not drawn) [Example 59, 3-((4-(3-(4-(((7-(cyclopropylmethoxy)-5-fluoro-4-oxo-3,4-dihydroquinazolin-2-yl)methyl)thio)piperidin-1-yl)pyrrolidin-1-yl)-3-fluorophenyl)amino)piperidine-2,6-dione], the DC50 was below 30 nM.

For `O=C1CCC(Nc2ccc(N3CCC(N4CC(N5CCC(SCc6nc7cc(OCC8CCOCC8)cc(F)c7c(=O)[nH]6)CC5)C4)CC3)c(F)c2)C(=O)N1` (stereo not drawn) [Example 51, 3-((3-fluoro-4-(4-(3-(4-(((5-fluoro-4-oxo-7-((tetrahydro-2H-pyran-4-yl)methoxy)-3,4-dihydroquinazolin-2-yl)methyl)thio)piperidin-1-yl)azetidin-1-yl)piperidin-1-yl)phenyl)amino)piperidine-2,6-dione formate], the DC50 was below 30 nM.

Regarding `O=C1CCC(Nc2ccc(N3CCN(CCN4CCC(SCc5nc6cc(OCC7CCOCC7)cc(F)c6c(=O)[nH]5)CC4)CC3)cc2)C(=O)N1` (stereo not drawn) [Example 43, 3-((4-(4-(2-(4-(((5-fluoro-4-oxo-7-((tetrahydro-2H-pyran-4-yl)methoxy)-3,4-dihydroquinazolin-2-yl)methyl)thio)piperidin-1-yl)ethyl)piperazin-1-yl)phenyl)amino)piperidine-2,6-dione], the DC50 was below 30 nM.

Consider `Cn1nc(N2CCC(=O)NC2=O)c2ccc(N3CCC(N4CCC(SCc5nc6cc(OCC7CC7)cc(F)c6c(=O)[nH]5)CC4)CC3)cc21` [Example 61, 1-(6-(4-(((7-(cyclopropylmethoxy)-5-fluoro-4-oxo-3,4-dihydroquinazolin-2-yl)methyl)thio)-[1,4′-bipiperidin]-1′-yl)-1-methyl-1H-indazol-3-yl)dihydropyrimidine-2,4(1H,3H)-dione], for which the DC50 was below 30 nM.

For `O=C1CCC(Nc2cc(F)c(N3CCC(N4CCC(SCc5nc6cc(OCC7CC7)cc(F)c6c(=O)[nH]5)CC4)CC3)cc2F)C(=O)N1` (stereo not drawn) [Example 58, 3-((4-(4-(((7-(cyclopropylmethoxy)-5-fluoro-4-oxo-3,4-dihydroquinazolin-2-yl)methyl)thio)-[1,4′-bipiperidin]-1′-yl)-2,5-difluorophenyl)amino)piperidine-2,6-dione], the DC50 is below 30 nM.

`O=C1CCC(Nc2ccc(N3CCC(CN4CCC(SCc5nc6cc(OCC7CC7)cc(F)c6c(=O)[nH]5)CC4)CC3)c(F)c2)C(=O)N1` (stereo not drawn) [Example 56, 3-((4-(4-((4-(((7-(cyclopropylmethoxy)-5-fluoro-4-oxo-3,4-dihydroquinazolin-2-yl)methyl)thio)piperidin-1-yl)methyl)piperidin-1-yl)-3-fluorophenyl)amino)piperidine-2,6-dione formate]: the DC50 is below 30 nM.

`O=C1CCC(Nc2ccc(N3CCN(CCN4CCC(OCc5nc6cc(OCC7CC7)cc(F)c6c(=O)[nH]5)CC4)CC3)c(F)c2)C(=O)N1` (stereo not drawn) [Example 45, 3-((4-(4-(2-(4-((7-(cyclopropylmethoxy)-5-fluoro-4-oxo-3,4-dihydroquinazolin-2-yl)methoxy)piperidin-1-yl)ethyl)piperazin-1-yl)-3-fluorophenyl)amino)piperidine-2,6-dione]: the DC50 is below 30 nM.
